Measurements from US12534452B2, “N-(1H-imidazol-2-yl)benzamide compound and pharmaceutical composition comprising the same as active ingredient” (KAINOS MEDICINE, INC., priority 2019, dated 2026).

Biological target: IRAK4 (Homo sapiens (Human), UniProt Q9NWZ3)
Experiment: In vitro IRAK4 phosphorylation activity assay
Type: biochemical
Conditions: [γ-33P]-ATP, myelin basic protein substrate, 40 minutes at room temperature; categories
Protocol: In vitro IRAK4 analysis was performed using N-(1H-imidazol-2-yl)benzamide compounds according to the present invention. All compounds were prepared by dissolving in DMSO. N-(1H-imidazol-2-yl)benzamide compound according to the present invention and other elements for the reaction were added to an assay well. In the standard Kinase Profiler service the preincubation step between the N-(1H-imidazol-2-yl)benzamide compound and kinase was not performed before the reaction.
To the positive control well, all reactants except for the N-(1H-imidazol-2-yl)benzamide compound according to the present invention were added, and DMSO was added to remove the solvent effect. A known control inhibitor having the following structure was added to the blank wells to inhibit kinase activity and establish a base-line.
IRAK4 was incubated with 8 mM MOPS pH 7.0, 0.2 mM EDTA, 0.33 mg/mL myelin basic protein, 10 mM magnesium acetate and [γ-33P]-ATP (specific activity approx. 500 cpm/pmol, concentration as required). The reaction was initiated by the addition of the MgATP mix. After incubation for 40 minutes at room temperature, the reaction was stopped by the addition of 3% phosphoric acid solution. 10 μL of the reaction was then spotted onto a P30 filtermat and washed three times for 5 minutes in 75 mM phosphoric acid and once in methanol prior to drying and scintillation counting.
The results are shown in Table 26 below, where the phosphorylation activity of IC50 values for IRAK4 is shown in categories (A: <50 nM, B: 50-100 nM, C: >100 nM).

Chain of IRAK4 (Q9NWZ3 whole entry): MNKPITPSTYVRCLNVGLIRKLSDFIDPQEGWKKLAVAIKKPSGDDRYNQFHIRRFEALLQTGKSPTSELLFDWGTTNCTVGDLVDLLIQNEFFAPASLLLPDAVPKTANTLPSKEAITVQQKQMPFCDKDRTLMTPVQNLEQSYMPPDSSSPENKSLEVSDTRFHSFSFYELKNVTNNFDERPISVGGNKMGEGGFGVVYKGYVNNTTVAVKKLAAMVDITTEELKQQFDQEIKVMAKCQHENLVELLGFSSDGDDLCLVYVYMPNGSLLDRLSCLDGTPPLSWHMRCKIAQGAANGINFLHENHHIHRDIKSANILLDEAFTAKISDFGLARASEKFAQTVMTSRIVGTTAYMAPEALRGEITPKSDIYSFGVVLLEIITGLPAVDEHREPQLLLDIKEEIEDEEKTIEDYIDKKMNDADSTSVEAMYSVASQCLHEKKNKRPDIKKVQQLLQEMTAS

SMILES | IC50
CC(C)N1CCN(C(=O)CCCc2cn(-c3ccccc3)c(NC(=O)c3cccc(-c4cnn(C)c4)c3)n2)CC1 [Example 145, N-(4-(4-(4-isopropylpiperazin-1-yl)-4-oxobutyl)-1-phenyl-1H-imidazol-2-yl)-3-(1-methyl-1H-pyrazol-4-yl)benzamide] | < 50 nM
O=C(Nc1nc(CCCCN2CCCCC2)cn1-c1ccccc1)c1cccc(-c2ccc3[nH]ncc3c2)c1 [Example 256, 3-(1H-indazol-5-yl)-N-(1-phenyl-4-(4-(piperidin-1-yl)butyl)-1H-imidazol-2-yl)benzamide] | < 50 nM
O=C(Nc1nc(CCCC(=O)N2CCCCC2)cn1-c1ccccc1)c1cccc(-c2cn[nH]c2)c1 [Example 59, N-(4-(4-oxo-4-(piperidin-1-yl)butyl)-1-phenyl-1H-imidazol-2-yl)-3-(1H-pyrazol-4-yl)benzamide] | < 50 nM
O=C(CCc1cn(-c2cccc(Br)c2)c(NC(=O)c2cccc(-c3cn[nH]c3)c2)n1)Nc1ccccc1 [Example 294, N-(1-(3-bromophenyl)-4-(3-oxo-3-(phenylamino)propyl)-1H-imidazol-2-yl)-3-(1H-pyrazol-4-yl)benzamide] | 50 to 100 nM
C[Si](C)(C)CCOCn1cc(-c2cccc(C(=O)Nc3nc(CCCC(=O)NC4CC4)cn3-c3ccccc3)c2)cn1 [Example 67, N-(4-(4-(cyclopropylamino)-4-oxobutyl)-1-phenyl-1H-imidazol-2-yl)-3-(1-((2-(trimethylsilyl)ethoxy)methyl)-1H-pyrazol-4-yl)benzamide] | > 100 nM
O=C(Nc1nc(CCCCN2CCOCC2)cn1-c1ccccc1)c1cccc(-c2cn[nH]c2)c1 [Example 114, N-(4-(4-morpholinobutyl)-1-phenyl-1H-imidazol-2-yl)-3-(1H-pyrazol-4-yl)benzamide] | < 50 nM
CNC(=O)CCCc1cn(-c2ccccc2)c(NC(=O)c2cccc(-c3ccc4[nH]ncc4c3)c2)n1 [Example 244, 3-(1H-indazol-5-yl)-N-(4-(4-(methylamino)-4-oxobutyl)-1-phenyl-1H-imidazol-2-yl)benzamide] | < 50 nM
O=C(CCc1cn(Cc2ccccc2)c(NC(=O)c2cccc(-c3cn[nH]c3)c2)n1)Nc1ccccc1 [Example 292, N-(1-benzyl-4-(3-oxo-3-(phenylamino)propyl)-1H-imidazol-2-yl)-3-(1H-pyrazol-4-yl)benzamide] | > 100 nM
O=C(CCCc1cn(-c2ccccc2)c(NC(=O)c2cccc(-c3cnn(CF)c3)c2)n1)NC1CC1 [Example 234, N-(4-(4-(cyclopropylamino)-4-oxobutyl)-1-phenyl-1H-imidazol-2-yl)-3-(1-(fluoromethyl)-1H-pyrazol-4-yl)benzamide] | < 50 nM
C[C@@H]1CCC[C@H](C)N1C(=O)CCCc1cn(-c2ccccc2)c(NC(=O)c2cccc(-c3cn[nH]c3)c2)n1 [Example 63, N-(4-(4-((2R,6S)-2,6-dimethylpiperidin-1-yl)-4-oxobutyl)-1-phenyl-1H-imidazol-2-yl)-3-(1H-pyrazol-4-yl)benzamide] | < 50 nM
O=C(CCCc1cn(-c2ccccc2)c(NC(=O)c2cccc(-c3cccc4[nH]ncc34)c2)n1)NC1CC1 [Example 249, N-(4-(4-(cyclopropylamino)-4-oxobutyl)-1-phenyl-1H-imidazol-2-yl)-3-(1H-indazol-4-yl)benzamide] | < 50 nM
O=C(CCCc1cn(-c2ccccc2)c(NC(=O)c2cccc(-c3cn[nH]c3)c2)n1)NC1CC1 [Example 68, N-(4-(4-(cyclopropylamino)-4-oxobutyl)-1-phenyl-1H-imidazol-2-yl)-3-(1H-pyrazol-4-yl)benzamide] | < 50 nM
Cn1cc(-c2cccc(C(=O)Nc3nc(CCC(=O)Nc4ccccc4)cn3-c3ccccc3)c2)cn1 [Example 193, 3-(1-methyl-1H-pyrazol-4-yl)-N-(4-(3-oxo-3-(phenylamino)propyl)-1-phenyl-1H-imidazol-2-yl)benzamide] | 50 to 100 nM
Cn1cc(-c2cccc(C(=O)Nc3nc(CCCC(=O)NC[C@@H](F)C(C)(C)O)cn3-c3ccccc3)c2)cn1 [Example 185, (R)—N-(4-(4-((2-fluoro-3-hydroxy-3-methylbutyl)amino)-4-oxobutyl)-1-phenyl-1H-imidazol-2-yl)-3-(1-methyl-1H-pyrazol-4-yl)benzamide] | 50 to 100 nM
Nc1ccc(-c2cccc(C(=O)Nc3nc(CCCCCCNC(=O)C4CC4)cn3-c3ccccc3)c2)cn1 [Example 278, 3-(6-aminopyridin-3-yl)-N-(4-(6-(cyclopropanecarboxamido)hexyl)-1-phenyl-1H-imidazol-2-yl)benzamide] | < 50 nM
Cn1cc(-c2cccc(C(=O)Nc3nc(CCCC(=O)NC4CCOC4)cn3-c3ccccc3)c2)cn1 (stereo not shown) [Example 179, 3-(1-methyl-1H-pyrazol-4-yl)-N-(4-(4-oxo-4-((tetrahydrofuran-3-yl)amino)butyl)-1-phenyl-1H-imidazol-2-yl)benzamide] | < 50 nM
O=C(Nc1nc(CCCCN2CCCCC2)cn1-c1ccccc1)c1cccc(-c2cn[nH]c2)c1 [Example 113, N-(1-phenyl-4-(4-(piperidin-1-yl)butyl)-1H-imidazol-2-yl)-3-(1H-pyrazol-4-yl)benzamide] | < 50 nM

Other lines, results leading:

IC50 | SMILES
< 50 nM | Cn1cc(-c2cccc(C(=O)Nc3nc(CCCC(=O)N4CCN(S(C)(=O)=O)CC4)cn3-c3ccccc3)c2)cn1 [Example 206, 3-(1-methyl-1H-pyrazol-4-yl)-N-(4-(4-(4-(methylsulfonyl)piperazin-1-yl)-4-oxobutyl)-1-phenyl-1H-imidazol-2-yl)benzamide]
< 50 nM | COC(=O)CCCCc1cn(-c2ccccc2)c(NC(=O)c2cccc(-c3cn[nH]c3)c2)n1 [Example 77, methyl 5-(2-(3-(1H-pyrazol-4-yl)benzamido)-1-phenyl-1H-imidazol-4-yl)pentanoate]
< 50 nM | O=C(Nc1nc(CCCCN2CCCC2=O)cn1-c1ccccc1)c1cccc(-c2ccc3[nH]ncc3c2)c1 [Example 258, 3-(1H-indazol-5-yl)-N-(4-(4-(2-oxopyrrolidin-1-yl)butyl)-1-phenyl-1H-imidazol-2-yl)benzamide]
< 50 nM | O=C(Nc1nc(CCCCCCN2CCSCC2)cn1-c1ccccc1)c1cccc(-c2cn[nH]c2)c1 [Example 124, N-(1-phenyl-4-(6-thiomorpholinohexyl)-1H-imidazol-2-yl)-3-(1H-pyrazol-4-yl)benzamide]
< 50 nM | CN1CCN(C(=O)CCCCCc2cn(-c3ccccc3)c(NC(=O)c3cccc(-c4ccc5ncsc5c4)c3)n2)CC1 [Example 285, 3-(benzo[d]thiazol-6-yl)-N-(4-(6-(4-methylpiperazin-1-yl)-6-oxohexyl)-1-phenyl-1H-imidazol-2-yl)benzamide]
50 to 100 nM | C[C@H]1CCCCN1C(=O)CCc1cn(-c2ccccc2)c(NC(=O)c2cccc(-c3cn[nH]c3)c2)n1 [Example 31, (S)—N-(4-(3-(2-methylpiperidin-1-yl)-3-oxopropyl)-1-phenyl-1H-imidazol-2-yl)-3-(1H-pyrazol-4-yl)benzamide]
< 50 nM | CN1CCN(N(C)C(=O)CCCc2cn(-c3ccccc3)c(NC(=O)c3cccc(-c4cnn(C)c4)c3)n2)CC1 [Example 218, N-(4-(4-(methyl(4-methylpiperazin-1-yl)amino)-4-oxobutyl)-1-phenyl-1H-imidazol-2-yl)-3-(1-methyl-1H-pyrazol-4-yl)benzamide]
< 50 nM | Cn1cc(-c2cccc(C(=O)Nc3nc(CCCC(=O)N4CCC[C@@H](N)C4)cn3-c3ccccc3)c2)cn1 [Example 210, (R)—N-(4-(4-(3-aminopiperidin-1-yl)-4-oxobutyl)-1-phenyl-1H-imidazol-2-yl)-3-(1-methyl-1H-pyrazol-4-yl)benzamide]
< 50 nM | CNC(=O)CCCc1cn(-c2ccc(F)cc2)c(NC(=O)c2cccc(-c3cn[nH]c3)c2)n1 [Example 297, N-(1-(4-fluorophenyl)-4-(4-(methylamino)-4-oxobutyl)-1H-imidazol-2-yl)-3-(1H-pyrazol-4-yl)benzamide]
< 50 nM | O=C(Nc1nc(CCC(=O)N2CCCC(C(=O)O)C2)cn1-c1ccccc1)c1cccc(-c2cn[nH]c2)c1 [Example 36, (S)-1-(3-(2-(3-(1H-pyrazol-4-yl)benzamido)-1-phenyl-1H-imidazol-4-yl)propanoyl)piperidine-3-carboxylic acid]
> 100 nM | O=C(CCc1cn(-c2ccccc2)c(NC(=O)c2cccc(-c3c[nH]nc3C(F)(F)F)c2)n1)Nc1ccccc1 [Example 3, N-(4-(3-oxo-3-(phenylamino)propyl)-1-phenyl-1H-imidazol-2-yl)-3-(3-(trifluoromethyl)-1H-pyrazol-4-yl)benzamide]
50 to 100 nM | COC(=O)Cc1cn(-c2ccccc2)c(NC(=O)c2cccc(-c3cn[nH]c3)c2)n1 [Example 42, methyl 2-(2-(3-(1H-pyrazol-4-yl)benzamido)-1-phenyl-1H-imidazol-4-yl)acetate]
> 100 nM | CCOC(C)n1cc(-c2cccc(C(=O)Nc3nc(CCCC(=O)NC4CC4)cn3-c3ccccc3)c2)cn1 (stereo not shown) [Example 72, N-(4-(4-(cyclopropylamino)-4-oxobutyl)-1-phenyl-1H-imidazol-2-yl)-3-(1-(1-ethoxyethyl)-1H-pyrazol-4-yl)benzamide]
< 50 nM | O=C(CCCc1cn(-c2ccccc2)c(NC(=O)c2cccc(-c3cnn(C(F)F)c3)c2)n1)NC1CC1 [Example 235, N-(4-(4-(cyclopropylamino)-4-oxobutyl)-1-phenyl-1H-imidazol-2-yl)-3-(1-(difluoromethyl)-1H-pyrazol-4-yl)benzamide]
